Molecules are shown by their SMILES.

For experiment [1], the system named is HCV genotype 1b subgenomic replicon. Description: Anti-Hepatitis C replicon assay, genotype 1b (luciferase). To be noted: Hepatitis C virus; luciferase activity measured 48 hours later; read-out: HCV Genotype 1B Replicon pEC50 (converted). It is filed as cell-based. Summed up:
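The 1b line is ET cells carrying the I389luc-ubi-neo/NS3-3′/ET replicon with adaptive mutations E1202G, T1280I and K1846T; the 1a line is an Apath replicon line modified with firefly luciferase. Cells were exposed 48 h to compound (final 0.03 pM–50 μM, 0.5-1% DMSO), read by Steady-Glo luciferase, and IC50 came from 10-point four-parameter logistic fits; cytotoxicity was read by CellTiter-Glo.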

Experiment [2] has as its system ISG56 (Interferon-Stimulated Gene 56) promoter ISRE. Description: ISG56 luciferase reporter assay in HEK 293 cells. Particulars: Homo sapiens, HEK293; HEK 293 reporter, 24 hours; 100% = small molecule control test compound; read-out: ISG56 (Average Max Response) %. The experiment is classed as cell-based. Summed up: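 HEK 293 cells stably carrying a firefly luciferase reporter driven by the ISG56 promoter ISRE were incubated with compounds (11-point, 3-fold dilutions) for 24 h at 37 °C, 10,000 cells/well. Steady-Glo luminescence was normalized to DMSO and control-agonist wells, and pEC50 came from a four-parameter fit.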

With `FC(F)(F)c1cc(C(F)(F)F)c2ccc3nc(-c4nnco4)cn3c2n1` [Compound 1, 2-[2,4-bis(trifluoromethyl)imidazo[1,2-a]1,8-naphthyridin-8-yl]-1,3,4-oxadiazole], in experiment [1], the EC50 is 200 nM. For the same compound, the Emax in experiment [2] stood at 302%.

The values above are taken from patent US20140249143A1, “Compounds And Methods For Enhancing Innate Immune Responses” (GlaxoSmithKline LLC, priority 2011, published 2014).
